{"source": "paper PMC12643509", "about": "“High-throughput screens identify genotype-specific therapeutics for channelopathies” (JCI Insight, 2025)", "key": {"[1]": {"conditions": "humans; cited from earlier work"}, "[2]": {"target": "Kv11.1 missense variants, residues 536–628 (Homo sapiens, UniProt Q12809, Y475A)", "sequence (Q12809 whole entry Y475A, the tested form may be a part)": "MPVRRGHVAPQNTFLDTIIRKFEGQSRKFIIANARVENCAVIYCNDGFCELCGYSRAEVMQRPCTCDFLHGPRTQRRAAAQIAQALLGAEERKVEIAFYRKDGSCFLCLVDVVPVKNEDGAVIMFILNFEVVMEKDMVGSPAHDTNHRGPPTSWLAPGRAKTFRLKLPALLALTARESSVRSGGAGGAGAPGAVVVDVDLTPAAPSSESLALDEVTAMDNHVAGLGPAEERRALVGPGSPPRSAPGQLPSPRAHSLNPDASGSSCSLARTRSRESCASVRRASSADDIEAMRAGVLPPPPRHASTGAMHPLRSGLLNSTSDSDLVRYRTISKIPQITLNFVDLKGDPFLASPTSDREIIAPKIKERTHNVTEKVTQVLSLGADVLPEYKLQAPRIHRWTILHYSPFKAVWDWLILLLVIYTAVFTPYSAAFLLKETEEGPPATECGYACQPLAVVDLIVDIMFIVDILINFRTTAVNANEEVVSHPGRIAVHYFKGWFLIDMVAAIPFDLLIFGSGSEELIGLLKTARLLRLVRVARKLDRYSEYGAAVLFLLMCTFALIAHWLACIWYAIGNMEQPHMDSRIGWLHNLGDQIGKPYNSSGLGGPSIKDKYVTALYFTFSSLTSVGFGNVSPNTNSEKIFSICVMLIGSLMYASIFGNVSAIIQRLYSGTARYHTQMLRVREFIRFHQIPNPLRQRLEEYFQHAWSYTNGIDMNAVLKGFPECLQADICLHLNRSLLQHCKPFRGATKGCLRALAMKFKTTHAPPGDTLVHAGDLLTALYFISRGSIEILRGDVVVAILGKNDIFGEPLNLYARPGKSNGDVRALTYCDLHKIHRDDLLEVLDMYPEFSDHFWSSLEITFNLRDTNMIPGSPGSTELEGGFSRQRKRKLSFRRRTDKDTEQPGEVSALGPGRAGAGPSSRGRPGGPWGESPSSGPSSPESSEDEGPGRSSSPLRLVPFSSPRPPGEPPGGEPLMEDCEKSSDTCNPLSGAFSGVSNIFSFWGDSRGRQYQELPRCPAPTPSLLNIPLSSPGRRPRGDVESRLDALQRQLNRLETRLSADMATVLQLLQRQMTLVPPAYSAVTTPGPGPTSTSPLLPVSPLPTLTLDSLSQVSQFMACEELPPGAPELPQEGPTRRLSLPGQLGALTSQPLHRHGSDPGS", "test": "Multiplexed assay of variant effect (saturation mutagenesis, FACS surface trafficking)", "conditions": "missense variant Y475A", "procedure": "(§1) Cells were grown to 40%–60% confluence and transiently transfected first with Bxb1 integrase (pCAG–NLS–HA–Bxb1) using FuGENE 6 (Promega), followed by KCNH2 variant libraries 24 hours later. On day 6, cells were induced with 1 μg/mL doxycycline. Integrated cell lines expressed a single variant alongside mCherry, while nonintegrated cells were tagBFP-positive and mCherry-negative.\n(§2) Saturation mutagenesis of Kv11.1 was performed using a modified promoterless dsRed-Express derivative plasmid. WT KCNH2 was inserted adjacent to an AttB site, and NdeI/BglII sites were created via synonymous mutations. […] These were purified, ligated, and electroporated into MegaX DH10B Electrocomp Cells.\n(§3) The mutant pool was subcloned into the AttB-KCNH2-HA:IRES:mCherry plasmid, with an 18-mer poly-N barcode inserted adjacent to the AttB site. Each cloning step was validated via Sanger sequencing. To link barcodes with mutants, the library was digested, ligated, and PCR amplified. Final products were purified and sequenced on an Illumina NovaSeq. Reads were analyzed with a custom Python script to identify barcodes linked to single mutations.\n(§4) HEK293T cells were cultured in αMEM (Corning) with 10% FBS and 1% GlutaMax at 37°C with 5% CO2. The KCNH2 variant library was integrated into a HEK293T “landing pad” cell line containing an AttP site between a tetracycline-inducible promoter and a blue fluorescent protein gene.\n(§5) Cells were transfected using FuGENE 6, first with a plasmid expressing Bxb1 integrase (pCAG–NLS–HA–Bxb1) and then, the following day, with the KCNH2 variant library. On day 6, cells were incubated with 1 μg/mL doxycycline to induce expression from the landing pad’s promoter. Resulting stable cell lines expressed one variant and mCherry, while nonintegrated cells expressed tagBFP and were mCherry-negative.\n(§6) Stable HEK293T cell lines were cultured in T75 flasks until 80%–90% confluent. […] After treatments, high-throughput quantitation was performed at the Vanderbilt University Medical Center Flow Cytometry Shared Resource Core (FCSR).\n(§7) The treated HEK293T library was sorted via FACS to isolate cells with high mCherry expression and successful AttB plasmid integration. […] Sorted cells were repopulated and prepared for freezing, pelleted at 1 million cells per tube.\n(§8) DNA was isolated from cell pools (100 μL QuickExtract per 1 million cells) and the barcode was PCR amplified for Illumina sequencing using Q5 polymerase (25–35 cycles). Sequencing reads were demultiplexed and analyzed using custom Python scripts (https://github.com/kroncke-lab/KCNH2_DMS) to identify barcodes.\n(§9) The scores were then averaged across the 4 replicate experiments (separate transfections of the mutant library pool)."}, "[3]": {"target": "Kv11.1 missense variants, residues 536–628 (Homo sapiens, UniProt Q12809, Y475D)", "sequence (Q12809 whole entry Y475D, the tested form may be a part)": "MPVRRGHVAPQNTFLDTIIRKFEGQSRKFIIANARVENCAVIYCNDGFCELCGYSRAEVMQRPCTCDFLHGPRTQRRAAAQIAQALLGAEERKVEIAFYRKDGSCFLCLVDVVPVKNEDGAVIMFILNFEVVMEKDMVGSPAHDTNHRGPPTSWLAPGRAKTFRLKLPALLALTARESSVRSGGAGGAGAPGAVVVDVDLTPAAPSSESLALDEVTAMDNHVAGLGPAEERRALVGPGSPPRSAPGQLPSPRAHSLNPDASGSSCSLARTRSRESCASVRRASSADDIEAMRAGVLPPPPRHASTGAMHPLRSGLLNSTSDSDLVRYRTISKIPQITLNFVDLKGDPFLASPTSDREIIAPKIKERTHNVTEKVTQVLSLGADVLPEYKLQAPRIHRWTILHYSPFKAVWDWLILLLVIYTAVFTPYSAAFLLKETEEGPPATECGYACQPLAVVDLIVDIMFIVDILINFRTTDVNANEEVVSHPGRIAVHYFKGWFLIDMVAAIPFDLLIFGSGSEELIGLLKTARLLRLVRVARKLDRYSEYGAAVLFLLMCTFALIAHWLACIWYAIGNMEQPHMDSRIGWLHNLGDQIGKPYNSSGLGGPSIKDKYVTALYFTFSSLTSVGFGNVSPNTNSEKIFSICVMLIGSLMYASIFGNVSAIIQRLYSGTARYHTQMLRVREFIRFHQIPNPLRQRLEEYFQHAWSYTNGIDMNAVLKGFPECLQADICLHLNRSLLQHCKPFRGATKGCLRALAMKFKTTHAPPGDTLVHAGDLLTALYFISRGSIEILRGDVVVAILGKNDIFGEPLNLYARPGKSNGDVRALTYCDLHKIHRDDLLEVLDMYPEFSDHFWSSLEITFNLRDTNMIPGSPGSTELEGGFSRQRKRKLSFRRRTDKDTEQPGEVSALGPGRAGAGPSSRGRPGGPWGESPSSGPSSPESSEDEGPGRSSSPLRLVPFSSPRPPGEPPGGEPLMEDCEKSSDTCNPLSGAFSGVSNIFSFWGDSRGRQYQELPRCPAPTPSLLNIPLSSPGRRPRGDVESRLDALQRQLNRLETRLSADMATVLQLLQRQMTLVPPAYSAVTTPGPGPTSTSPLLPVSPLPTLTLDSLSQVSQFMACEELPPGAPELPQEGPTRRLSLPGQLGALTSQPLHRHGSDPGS", "test": "Multiplexed assay of variant effect (saturation mutagenesis, FACS surface trafficking)", "conditions": "missense variant Y475D", "procedure": "as §1, §2, §3, §4, §5, §6, §7, §8, §9"}, "[4]": {"system": "Kv11.1 missense variants, residues 536–628", "test": "Multiplexed assay of variant effect (saturation mutagenesis, FACS surface trafficking)", "procedure": "as §1, §2, §3, §4, §5, §6, §7, §8, §9"}, "[5]": {"target": "WT Kv11.1 (Homo sapiens, UniProt Q12809)", "sequence (Q12809 whole entry)": "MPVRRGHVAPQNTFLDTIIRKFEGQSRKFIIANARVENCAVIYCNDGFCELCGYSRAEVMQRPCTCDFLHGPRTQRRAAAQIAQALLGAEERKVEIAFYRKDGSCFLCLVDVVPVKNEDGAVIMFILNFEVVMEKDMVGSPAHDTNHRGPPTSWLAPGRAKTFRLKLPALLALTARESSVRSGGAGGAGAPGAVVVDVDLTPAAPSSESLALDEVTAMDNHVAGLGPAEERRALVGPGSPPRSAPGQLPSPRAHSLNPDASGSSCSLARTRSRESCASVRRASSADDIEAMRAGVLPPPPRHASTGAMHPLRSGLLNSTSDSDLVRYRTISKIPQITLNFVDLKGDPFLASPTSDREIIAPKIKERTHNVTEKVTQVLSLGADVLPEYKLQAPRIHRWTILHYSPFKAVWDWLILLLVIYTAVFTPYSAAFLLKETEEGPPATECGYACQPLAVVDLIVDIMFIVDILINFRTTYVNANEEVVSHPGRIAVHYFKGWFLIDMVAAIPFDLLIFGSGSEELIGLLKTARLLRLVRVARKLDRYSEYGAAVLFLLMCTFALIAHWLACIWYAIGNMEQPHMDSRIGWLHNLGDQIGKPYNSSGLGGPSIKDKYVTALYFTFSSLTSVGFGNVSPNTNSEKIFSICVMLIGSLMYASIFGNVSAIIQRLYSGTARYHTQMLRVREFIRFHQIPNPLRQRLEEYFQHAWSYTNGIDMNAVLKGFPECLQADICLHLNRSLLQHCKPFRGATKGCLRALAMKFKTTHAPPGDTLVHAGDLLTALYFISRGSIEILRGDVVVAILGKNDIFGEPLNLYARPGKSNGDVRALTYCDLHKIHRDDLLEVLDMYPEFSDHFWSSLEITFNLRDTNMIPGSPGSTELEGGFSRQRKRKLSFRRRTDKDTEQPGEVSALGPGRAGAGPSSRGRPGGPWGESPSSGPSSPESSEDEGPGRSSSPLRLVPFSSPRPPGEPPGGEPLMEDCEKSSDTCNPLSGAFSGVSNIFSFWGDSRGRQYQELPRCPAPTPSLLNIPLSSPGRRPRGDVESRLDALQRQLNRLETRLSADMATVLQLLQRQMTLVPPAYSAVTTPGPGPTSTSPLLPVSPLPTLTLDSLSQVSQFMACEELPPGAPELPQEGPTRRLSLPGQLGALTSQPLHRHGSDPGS", "conditions": "24 hour and washout, individual wells", "source_text": "plot of hits tested for 24-h our WT toxicity. Each point repres ents the med ia n robust Z score\nafter 24-hour treatm ent and washout in cells ex pressing WT.\nrobust Z scores be low bas eli ne function).\nsecond ary screens w ere perform ed i n triplicate us ing 1 0 µ M drug treatme nt to assess: 1)\nacute channel block, measur ed after a 15-minute inc ubati on with the drug present duri ng\nrecordi ngs; and 2) t oxicit y in W T channels, assesse d af t er a 24-hour drug ex posure fol low ed\n(C) Tl+-measurements after 24-hour treatment and washout in HEK cells"}, "[6]": {"target": "wild-type KV11.1 (Homo sapiens, UniProt Q12809)", "sequence (Q12809 whole entry)": "as above", "test": "cell-based"}, "[7]": {"conditions": "cited from earlier work"}, "[8]": {"system": "C57BL/6J mice", "test": "Mouse ECG analysis (cardiac safety)", "format": "in vivo", "set-up": "QTc / QT: unit not given here"}, "[9]": {"conditions": "mouse ECG, individual animals (Figure S5)"}, "[10]": {"conditions": "mouse ECG, individual animals (Figure S5), in ms (unit assumed)"}}, "note": "Where “and” joins values, the source holds several entries; their conditions need not be identical. Identical values can stand only once.", "data": [{"smiles": "Cc1cc(C)c2c(c1)[C@@H](N(Cc1cc(C(F)(F)F)cc(C(F)(F)F)c1)c1nnn(C)n1)CCCN2C[C@H]1CC[C@H](C(=O)O)CC1", "note": "[Evacetrapib, evacetrapib]", "values": [{"measurement": "peak plasma concentrations", "setting": "[1]", "result": "1.9 to 8.2", "unit": "µM"}, {"measurement": "score (Figure 6B)", "setting": "[2]", "result": 25.1035}, {"measurement": "score (Figure 6B)", "setting": "[3]", "result": 152.736}, {"measurement": "share of the 546 variants rescued by either drug that evacetrapib improved", "setting": "[4]; 10 μmol/L, 24 hours", "result": 45, "unit": "%"}, {"measurement": "share of known pathogenic variants in the pore region with improved trafficking", "setting": "[4]; 16 out of 94", "result": 17, "unit": "%"}, {"measurement": "share of all trafficking-deficient variants in this channel segment with improved trafficking", "setting": "[4]; 248 out of 971, 10 μmol/L, 24 hours", "result": 25, "unit": "%"}, {"measurement": "number of trafficking-deficient variants with improved trafficking", "setting": "[4]; of 971 variants with ≥90% loss of surface expression, 10 μmol/L, 24 hours", "result": 248}, {"measurement": "number of known pathogenic variants in the pore region with improved trafficking", "setting": "[4]; out of 94, 10 μmol/L, 24 hours", "result": 16}, {"measurement": "Changes in WT function (thallium flux)", "setting": "[5]", "result": "0.1125 and 0.1113 and 0.1215"}, {"measurement": "EC50", "setting": "[6]", "result": 8.2, "unit": "µM"}, {"measurement": "mean QT interval compared to placebo", "setting": "[7]; 71 healthy patients, thorough QT study", "result": "did not significantly shorten the mean QT interval"}, {"measurement": "shorter QT interval compared with baseline", "setting": "[7]; at 12 hours", "result": 7, "unit": "ms"}, {"measurement": "ECG parameters, including the QT interval", "setting": "[8]; mice, 40 mg/kg intraperitoneally, 30 minutes post-drug", "result": "No significant differences"}, {"measurement": "P duration", "setting": "[8]; [9]", "result": "13.6667 and 11.3333 and 10.6667 and 11.6667 and 9 and 13.3333 and 12.3333"}, {"measurement": "PR interval", "setting": "[8]; [9]", "result": "56.3333 and 38.3333 and 42.3333 and 46.6667 and 44.6667 and 41.6667"}, {"measurement": "QT", "setting": "[8]; [9]", "result": "31.3333 and 39.3333 and 34 and 35.3333 and 42.3333"}, {"measurement": "QTc", "setting": "[8]; [9]", "result": "30.5782 and 35.4177 and 28.9078 and 33.1412 and 36.2561 and 31.0292 and 33.811"}, {"measurement": "QRS", "setting": "[8]; [10]", "result": "12 and 11 and 10.6667 and 10.3333"}, {"measurement": "RR", "setting": "[8]; [10]", "result": "105 and 123.333 and 138.333 and 113.667 and 136.333 and 129.667 and 135.333"}]}]}
